Results as given in patent US10238710B2, “Peptide having anti-inflammatory, osteogenic and hair growth promoting activities, and use of same” (CAREGEN CO., LTD., priority 2014, dated 2019).

Key:
IL-1β = IL-1β ELISA in THP-1 cells treated with TNF-α; format: cell-based, human; settings: 10 μg/ml pre-treatment 30 minutes, 50 ng/ml TNF-α, 24 hours
Procedure: (§1) The human monocytes, THP-1 cells were seeded on a 24-well plate at a density of 2×10^6 cells/well. After incubation overnight, the cells were pre-treated with the samples at 10 μg/ml for 30 minutes, and treated with 50 ng/ml TNF-α, followed by incubation for 24 hours. The cell incubation medium was obtained, followed by centrifugation at 13,000 rpm for 10 minutes at 4° C., and then the supernatant was separated. ELISA was carried out using IL-1b and IL-8 ELISA kit (R&D system).

KGF = assay: Western blotting of hair growth protein KGF; format: cell-based, human; settings: HFDPC, 0.1-50 μg/ml, 24 hours
Procedure: (§2) In order to observe the changes in the expression of IGF1, KGF, and Wnt3a, which are proteins involved in the development of hair roots in the human hair follicle dermal papilla cells, the cells were treated with the peptides of the present invention for 24 hours, and then subjected to western blotting using specific antibodies, thereby observing the changes in hair growth-related proteins.
(§3) The cells were stabilized by the incubation overnight, and then treated with the peptides at different concentrations (0.1-50 μg/ml) for 24 hours. The cells were treated with the cell lysis buffer to obtain a lysate, followed by protein quantification, and then western blotting was performed with respect to IGF-1, KGF, and Wnt3a.
(§4) The test was carried out using anti-IGF-1 antibody (Santa Cruz Biotechnology, USA), anti-KGF antibody (Santa Cruz Biotechnology, USA), and anti-Wnt3a antibody (Santa Cruz Biotechnology, USA).

β-catenin = assay: Western blotting of cell signaling material, β-catenin; format: cell-based, human; settings: HFDPC, 1 and 10 μg/ml, 30 minutes and 60 minutes
Procedure: (§5) In order to observe the changes in the phosphorylation of ERK and the expression of PI3K, which are main signaling materials involved in cell proliferation in the human hair follicle dermal papilla cells, the cells were treated with the peptides of the present invention for 30 minutes and 60 minutes, and then subjected to western blotting using specific antibodies, thereby observing the pERK and PI3K changes. The test was carried out using anti-pERK antibody (Santa Cruz Biotechnology, USA) and anti-pPI3K antibody (Santa Cruz Biotechnology, USA).
(§6) The cells were treated with the cell lysis buffer to obtain a lysate, followed by protein quantification, and then western blotting was performed with respect to Phospho-ERK (pERK), PI3K, and β-catenin.

Wnt3a = assay: Western blotting of hair growth protein Wnt3a; format: cell-based, human; settings: HFDPC, 0.1-50 μg/ml, 24 hours
Procedure: as §2, §3, §4

[1] = system: human hair follicle germinal matrix cells (HFGMC); assay: Cell proliferation assay (SRB), HFGMC; format: cell-based; settings: 1, 10 and 50 μg/ml, 72 hours
Procedure: (§7) In order to observe the cell proliferation effect on human hair follicle dermal papilla cells, human hair follicle germinal matrix cells, and human umbilical vein endothelial cells, which are main hair cells, each type of cells were seeded on a 96-well plate at a density of 3×10^3 cells/well, followed by incubation under conditions of 37° C. and 5% CO2 for 24 hours. After the medium was exchanged with the same culture medium completely excluding serum, the cells were treated with the peptides at different concentrations (1 μg/ml, 10 μg/ml, and 50 μg/ml), followed by incubation under the same conditions for 72 hours. After the incubation supernatant was removed, the cells were immobilized using ethanol, and washed three times with phosphate buffer saline (PBS). The wash solution was removed, and the cells were stained through the treatment with colorimetric SRB solution. After the cells were sufficiently washed with 1% acetic acid, the cells were observed using a microscope to observe the state of living cells. The absorbance was read at UV light of 560 nm, thereby measuring the survival conditions of cells

Phospho-ERK (pERK) = assay: Western blotting of cell signaling material, ERK phosphorylation; format: cell-based, human; settings: HFDPC, 1 and 10 μg/ml, 30 minutes and 60 minutes
Procedure: as §5, §6

TNFR = assay: Receptor binding assay (TNFR), ELISA; settings: peptide coated 50 μg/25 μl, O.D. 450 nm, positive control TNF-α
PI3K = assay: Western blotting of cell signaling material, PI3K; format: cell-based, human; settings: HFDPC, 1 and 10 μg/ml, 30 minutes and 60 minutes
Procedure: as §5, §6

Ha3-II and keratin 14 = assay: RT-PCR of keratinocyte differentiation markers in HaCaT cells; format: cell-based, human; settings: HaCaT, 0.1, 1 and 10 μg/ml, 24 hours
Procedure: The cells were treated with the peptides at different concentrations (0.1 μg/ml, 1 μg/ml, and 10 μg/ml), and then incubated in an incubator at 37° C. for 24 hours. […] RT-PCR was carried out using primers of respective markers (Ha3-II and keratin 14) and PCR pre-mix (Intron) to measure the changes in the expression of the markers.
Target-specific primer sequences used in PCR for keratinocyte differentiation markers were as follows: Ha3-II forward primer sequence, 5′-[…]-3′ and Ha3-II reverse primer, 5′-[…]-3′ (annealing temperature, 60° C.); Keratin14 forward primer sequence, 5′-[…]-3′ and Keratin14 reverse primer, 5′-[…]-3′ (annealing temperature, 60° C.)

IGF-1 = assay: Western blotting of hair growth protein IGF-1; format: cell-based, human; settings: HFDPC, 0.1-50 μg/ml, 24 hours
Procedure: as §2, §3, §4

DKK-1 = assay: Western blotting of DKK-1 with hair loss causing hormone DHT; format: cell-based, human; settings: HFDPC, 48 hours
Procedure: The cells were treated with DHT and the peptides for 48 hours, and then subjected to western blotting with respect to DKK-1 using specific antibodies, thereby observing the expression of DKK-1.
The human hair follicle dermal papilla cells were seeded on a 6-well plate at a density of 1×10^5 cells/well. The cells were stabilized by incubation overnight, and then treated with 5 μg/ml DHT (Sigma Aldrich) together with the peptides at different concentrations (1 μg/ml and 10 μg/ml) for 48 hours. The cells were treated with the cell lysis buffer to obtain a lysate, followed by protein quantification, and then western blotting was performed with respect to DKK-1 using anti-DKK-1 antibody (Santa Cruz Biotechnology, USA).

Phospho-PI3K = assay: Western blotting using osteoblasts (PI3K phosphorylation); format: cell-based; settings: mouse osteoblast line, 50 μg/ml, 15 minutes
Procedure: The cells were treated with the peptides at 50 μg/ml for 15 minutes (positive control: HGF 50 ng/ml). The cells were treated with the cell lysis buffer to obtain a lysate, followed by protein quantification, and then western blotting was performed with respect to Phospho-PI3K (P-PI3K) using anti-pPI3K antibody (Santa Cruz Biotechnology, USA).

IL-8 = IL-8 ELISA in THP-1 cells treated with TNF-α; format: cell-based, human; settings: 10 μg/ml pre-treatment 30 minutes, 50 ng/ml TNF-α, 24 hours
Procedure: as §1

[2] = system: human umbilical vein endothelial cells (HUVEC); assay: Cell proliferation assay (SRB), HUVEC; format: cell-based; settings: 1, 10 and 50 μg/ml, 72 hours
Procedure: as §7

[3] = system: human hair follicle dermal papilla cells (HFDPC); assay: Cell proliferation assay (SRB), HFDPC; format: cell-based; settings: 1, 10 and 50 μg/ml, 72 hours
Procedure: as §7

HGFR = target: T1, HGFR (Homo sapiens, UniProt P08581); assay: Receptor binding assay (HGFR), ELISA; settings: peptide coated 50 μg/25 μl, O.D. 450 nm
T1 construct: purchased R&D Systems
Procedure: (§8) On an ELISA plate, 50 μg/25 μl peptide and 25 μl of a coating buffer (20 mM sodium phosphate pH 9.6) were added and mixed, and then incubated at 4° C. overnight. After washing three times with PBST (300 μl), the blocking with 200 μl of a blocking buffer (3% BSA) was carried out at room temperature for 2 hours. After washing three times with PBST (300 μl), HGFR (R&D Systems) was added at 0.5 μg/1 ml per well, followed by incubation at room temperature for 2 hours. After washing three times with PBST (300 μl), anti-human IgG-HRP was diluted at 1:1,000, which was then added at 100 μl per well, followed by incubation at room temperature for 2 hours. After washing three times with PBST (300 μl), 100 μl of TMB solution was added, followed by color development. 50 μl of a stop solution (3 N H2SO4) was added to stop the reaction, and then the absorbance was read at O.D. 450 nm.

Phospho-smad1/5/8 = assay: Western blotting using osteoblasts (Smad1/5/8 phosphorylation); format: cell-based; settings: mouse osteoblast line, 50 μg/ml, 15 minutes and 30 minutes
Procedure: The cells incubated overnight were incubated in a serum-free medium for 24 hours, and then treated with the peptide at 50 μg/ml for 15 minutes and 30 minutes (positive control; BMP4 50 ng/ml). The cells were treated with the cell lysis buffer to obtain a lysate, followed by protein quantification, and then western blotting was performed with respect to Phospho-smad1/5/8 (P-smad1/5/8) using anti-p-smad1/5/8 antibody (Santa Cruz Biotechnology, USA).

BMPR-IB = target: T2, BMPR-IB (Homo sapiens, UniProt O00238); assay: Receptor binding assay (BMPR), ELISA; settings: peptide coated 50 μg/25 μl, O.D. 450 nm, positive control BMP4
T2 construct: purchased R&D Systems
Procedure: as §8, with “In” for “On”, “BMPR-IB” for “HGFR”, “determined” for “read”

T2 sequence (O00238 14-502): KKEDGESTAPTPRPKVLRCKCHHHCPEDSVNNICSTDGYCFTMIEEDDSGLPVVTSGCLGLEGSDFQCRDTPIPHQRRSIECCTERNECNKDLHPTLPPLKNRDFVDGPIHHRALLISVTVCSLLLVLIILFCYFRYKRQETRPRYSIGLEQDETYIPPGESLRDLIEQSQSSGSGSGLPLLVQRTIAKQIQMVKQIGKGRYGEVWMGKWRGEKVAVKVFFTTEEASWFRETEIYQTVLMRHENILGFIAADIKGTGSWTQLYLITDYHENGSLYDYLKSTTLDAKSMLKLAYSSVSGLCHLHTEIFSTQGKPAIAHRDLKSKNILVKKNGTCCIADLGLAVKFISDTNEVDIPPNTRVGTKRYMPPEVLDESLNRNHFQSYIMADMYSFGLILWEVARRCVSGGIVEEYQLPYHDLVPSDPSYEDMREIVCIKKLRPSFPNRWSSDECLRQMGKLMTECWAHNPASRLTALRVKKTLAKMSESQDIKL
T1 sequence (P08581 25-1390): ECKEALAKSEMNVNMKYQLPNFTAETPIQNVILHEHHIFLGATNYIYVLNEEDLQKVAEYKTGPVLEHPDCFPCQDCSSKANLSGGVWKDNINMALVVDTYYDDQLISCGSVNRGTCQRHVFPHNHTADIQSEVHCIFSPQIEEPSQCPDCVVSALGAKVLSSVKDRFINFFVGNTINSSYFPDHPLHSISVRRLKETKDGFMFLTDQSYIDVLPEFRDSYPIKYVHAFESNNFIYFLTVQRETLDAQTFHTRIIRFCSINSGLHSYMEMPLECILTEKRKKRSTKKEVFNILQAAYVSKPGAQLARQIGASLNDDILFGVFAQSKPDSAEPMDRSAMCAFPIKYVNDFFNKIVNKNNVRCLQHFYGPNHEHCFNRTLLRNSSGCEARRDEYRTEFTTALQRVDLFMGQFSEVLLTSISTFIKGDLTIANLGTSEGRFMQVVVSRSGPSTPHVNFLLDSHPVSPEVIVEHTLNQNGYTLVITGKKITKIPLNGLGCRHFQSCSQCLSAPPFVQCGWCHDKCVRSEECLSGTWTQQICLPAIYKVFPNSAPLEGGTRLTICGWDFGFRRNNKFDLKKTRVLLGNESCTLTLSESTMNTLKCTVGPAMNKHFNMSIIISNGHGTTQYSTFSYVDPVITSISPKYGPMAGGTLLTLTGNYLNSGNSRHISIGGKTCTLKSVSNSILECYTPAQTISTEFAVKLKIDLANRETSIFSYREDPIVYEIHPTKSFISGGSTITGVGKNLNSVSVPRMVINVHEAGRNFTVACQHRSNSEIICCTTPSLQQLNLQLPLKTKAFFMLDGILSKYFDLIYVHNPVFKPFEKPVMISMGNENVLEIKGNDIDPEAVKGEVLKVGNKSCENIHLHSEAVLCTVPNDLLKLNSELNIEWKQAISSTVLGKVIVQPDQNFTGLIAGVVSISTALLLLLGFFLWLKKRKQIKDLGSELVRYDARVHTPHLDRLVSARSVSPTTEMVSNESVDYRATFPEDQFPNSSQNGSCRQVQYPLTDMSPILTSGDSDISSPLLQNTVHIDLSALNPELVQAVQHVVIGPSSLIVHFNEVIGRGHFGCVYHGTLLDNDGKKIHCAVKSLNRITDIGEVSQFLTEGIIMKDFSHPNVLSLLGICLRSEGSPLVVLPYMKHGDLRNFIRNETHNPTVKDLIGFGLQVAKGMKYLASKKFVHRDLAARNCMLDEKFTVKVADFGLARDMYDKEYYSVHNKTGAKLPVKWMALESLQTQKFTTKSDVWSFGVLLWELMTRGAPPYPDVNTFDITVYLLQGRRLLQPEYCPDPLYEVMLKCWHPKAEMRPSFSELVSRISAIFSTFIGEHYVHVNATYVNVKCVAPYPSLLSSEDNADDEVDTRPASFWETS

Row | Molecule | expression of IL-1β increased by TNF-α treatment (IL-1β) | expression of KGF (KGF) | expression of β-catenin (β-catenin) | expression of Wnt3a (Wnt3a) | cell proliferation, HFGMC [1] | phosphorylation of ERK (Phospho-ERK (pERK)) | binding affinity to TNFR (TNFR) | level of PI3K (PI3K) | mRNA expression levels of differentiation markers Ha3-II and keratin 14 (Ha3-II and keratin 14) | expression of IGF-1 (IGF-1) | expression of DKK-1 increased by DHT (DKK-1; 5 μg/ml DHT together with peptide 1 and 10 μg/ml) | phosphorylation of PI3K by HGFR signal stimulation (Phospho-PI3K) | expression of IL-8 increased by TNF-α treatment (IL-8) | cell proliferation, HUVEC [2] | cell proliferation, HFDPC [3] | binding affinity on HGFR (HGFR) | phosphorylation of Smad1/5/8 by BMPR signal stimulation (Phospho-smad1/5/8) | binding affinity on BMPR (BMPR-IB) | expression of DKK-1 (DKK-1; treatment with DHT 5 μg/ml alone)
1 | NH2-Ala-Cys-Asp-Gly-Arg-Thr-Gln-Ala-Leu-Cys-COOH (H-ACDGRTQALC-OH; cysteine pairing not given here) [SEQ ID NO: 3] | inhibited | increased | increased | increased | increased in a concentration-dependent manner | increased | high binding affinity | increased | keratinocyte differentiation promoting effect | increased | reduced | increased | inhibited | increased in a concentration-dependent manner | increased in a concentration-dependent manner | high binding affinity | – | – | –
2 | NH2-Ala-Cys-Phe-Thr-Arg-Thr-Ser-His-Ala-Cys-COOH (H-ACFTRTSHAC-OH; cysteine pairing not given here) [SEQ ID NO: 2] | inhibited | – | – | – | – | – | high binding affinity | – | – | – | – | – | inhibited | – | – | – | increased | high binding affinity | –
3 | C[C@]12CCC(=O)C[C@@H]1CC[C@@H]1[C@@H]2CC[C@]2(C)[C@@H](O)CC[C@@H]12 [DHT, dihydrotestosterone, reference compound] | – | – | – | – | – | – | – | – | – | – | – | – | – | – | – | – | – | – | increased
